Experimental data published in US20260008048A1, “POLYSILOXANE-BASED DEVICES WITH REDUCED DRUG ABSORPTION CHARACTERISTICS” (THE JOHNS HOPKINS UNIVERSITY, priority 2022, published 2026).
≈ marks a conversion by molar mass, not a printed value. Entries after “also recorded” stand apart in the source; their conditions may differ.

How the values were obtained:
[1] = cited from earlier work
[2] = Drug absorption after drug pretreatment of PDMS / PDMS-PEG samples; assay type: physicochemical; settings: 1 week pretreatment, 100 μM
[3] = 1-week drug absorption by PDMS / PDMS-PEG block copolymer plugs (UV-Vis); assay type: physicochemical; settings: 100 μM drug, 37° C.; for 1-week drug absorption with block copolymer versus PDMS: 1% and 2% BCP; for reduction of drug absorption by PDMS-PEG block copolymer additives: compared to PDMS
Procedure: Plug size was chosen to be similar to many microfluidic devices. After 1 week, the drug concentration was measured using UV-Vis spectroscopy, the area under the curve (AUC) was calculated, and each value was compared to drug standards to determine the percent drug loss (FIG. 2A).
PDMS-PEG Fabrication: PDMS was prepared as previously described in Scott, L. E., Mair, D. B., Narang, J. D., Feleke, K. & Lemmon, C. A. Fibronectin fibrillogenesis facilitates mechano-dependent cell spreading, force generation, and nuclear size in human embryonic fibroblasts. […] PDMS base was mixed with PDMS crosslinker at a […] for 5 minutes and was then degassed in a desiccator for 30 minutes. […] 8 mm plugs were taken using a biopsy punch and used in downstream experiments. This height/diameter was chosen to provide a surface to volume ratio of ˜0.2/mm, similar to that found in microfluidic devices.
Drug absorption experimental setup: Samples were added to glass vials. A 1.5 mL volume of 100 μM pharmaceutical solution was added, and the samples were fully submerged in the solution. […] Experimental samples were compared to controls, in which drug was incubated for one week without a PDMS sample. The mean of the controls was taken as the total drug concentration without absorption, and the percent drug loss was calculated as
UV-Vis: Following experimental absorption, 2 μL samples were measured (Nanodrop 2000, ThermoFisher Scientific). Measurements were taken in triplicate for each sample to decrease noise. […] The area under the curve was used to calculate the precent drug loss, compared to the AUC of the drug standards. Sample size equals three, with three independent measurements per sample.

[4] = cited from earlier work; remark: listed apart in the source
[5] = Drug absorption after drug pretreatment of PDMS / PDMS-PEG samples; assay type: physicochemical; settings: 24 hour pretreatment
Procedure: We pretreated with 200 μM and 1 mM concentrations and 1 week of absorption was measured (FIG. 4A). […] For these experiments, we utilized a 24 hour pretreatment step.
Drug Pretreatment: PDMS, 1% block copolymer, and 2% block copolymer samples were prepared as mentioned above. […] Pretreated samples were then transferred to a fresh 100 μM drug solution for one week of absorption, and absorption was assessed as described.

[6] = system: engineered heart tissue (EHT); experiment: Engineered heart tissue (Mantarray) twitch force dose response
Text: We utilized the commercially available Mantarray (Curi Bio) engineered heart tissue (EHT) platform to perform these screens. In this platform, the EHT self assembles between two posts, one soft and bendable, and the other stiff and immovable (FIG. 6B). The soft post has an embedded magnet, and deflection of the post due to EHT contraction results in changes in magnetic flux. The tissues can be placed over magnetic sensor arrays in the Mantarray system to measure this change in flux and calculate the twitch forces and kinetics.
After drug was allowed to absorb for 1 week, dose response curves were measured for each condition. […]
Engineered Heart Tissue Fabrication: The Mantarray (Curi Bio) is a system designed for reproducible fabrication and functional measurements of EHTs in a 24-well plate format. […] Cardiomyocytes and HS27A stromal cells (ATCC) were lifted using 0.05% trypsin+EDTA, counted, and resuspended at 8.3 million cells/mL and 2.5 million cells/mL, respectively. […]
EHT Dosing and Contractile Measurements: EHTs were fabricated as described above and paced to measure average force output. […] EHTs were paced at 5.0 V 1 Hz with a pulse duration of 10 milliseconds and average force output readings were recorded using a Mantarray for 60 seconds to give an initial mean force average. […] Percent reduction in twitch force following exposure to drug was then calculated using the equation

[7] = 200 μM and 1 mM, PDMS, 1% and 2% BCP overall

Row | 1-week drug absorption with block copolymer versus PDMS [3] | reduction of drug absorption by PDMS-PEG block copolymer additives [3] [%] | effect of pretreating with higher dosages on drug absorption [5, 7] | effect of pretreating with higher dosages on drug absorption ([5]; 1 mM, 2% BCP) | effect of pretreating with higher dosages on drug absorption ([5]; 1 mM, PDMS) | Structure (SMILES) | logP [1] | effect of pretreating with experimental dosages for 1 week on drug absorption ([2]; PDMS and PDMS-PEG BCP samples) | Solubility in H2O [4] [mg/mL] | effect of pretreating with experimental dosages for 1 week on drug absorption ([2]; PDMS only) | effect of pretreating with higher dosages on drug absorption ([5]; increasing dosage, 1% BCP) | effect of pretreating with higher dosages on drug absorption ([5]; increasing dosage, PDMS) | IC50 of drug incubated with APC compared to control ([6]; drug incubated 1 week at 37° C. with APC (2% block copolymer-1 mM)) | IC50 of drug incubated with PDMS compared to control and APC ([6]; drug incubated 1 week at 37° C. with PDMS) | effect of pretreating with higher dosages on drug absorption ([5]; 200 μM, 2% BCP)
1 | no significant improvement |  | significant reductions | significantly decreases absorption |  | CC(C)COCC(CN(Cc1ccccc1)c1ccccc1)N1CCCC1 (stereo not shown) [Bepridil] | 5.2 |  | 0.05655 (≈ 154 µM) | significantly decreases bepridil absorption | a decrease, followed by an increase in drug absorption; also recorded: increased | a decrease, followed by an increase in drug absorption; also recorded: increased |  |  | 
2 |  |  |  |  |  | COc1ccc(CCN(C)CCCC(C#N)(c2ccc(OC)c(OC)c2)C(C)C)cc1OC (stereo not shown) [Verapamil] |  |  |  |  |  |  | not significantly different from control | significantly reduce the IC50 value | 
3 | significantly reduced | 97.2 | significant reductions |  | increased | COCCc1ccc(OCC(O)CNC(C)C)cc1 (stereo not shown) [Metoprolol Succinate] |  | no significant effect | 1000 |  | no significant change in absorption | biphasic drug absorption pattern |  |  | significant increase in absorption; also recorded: increased

Row | Structure (SMILES) | 1-week drug absorption with block copolymer versus PDMS [3] | reduction of drug absorption by PDMS-PEG block copolymer additives [3] [%] | effect of pretreating with higher dosages on drug absorption [5, 7] | effect of pretreating with higher dosages on drug absorption ([5]; 1 mM, 2% BCP) | effect of pretreating with higher dosages on drug absorption ([5]; 1 mM, PDMS) | logP [1] | effect of pretreating with experimental dosages for 1 week on drug absorption ([2]; PDMS and PDMS-PEG BCP samples) | Solubility in H2O [4] [mg/mL] | effect of pretreating with experimental dosages for 1 week on drug absorption ([2]; PDMS only) | effect of pretreating with higher dosages on drug absorption ([5]; increasing dosage, 1% BCP) | effect of pretreating with higher dosages on drug absorption ([5]; increasing dosage, PDMS) | IC50 of drug incubated with APC compared to control ([6]; drug incubated 1 week at 37° C. with APC (2% block copolymer-1 mM)) | IC50 of drug incubated with PDMS compared to control and APC ([6]; drug incubated 1 week at 37° C. with PDMS) | effect of pretreating with higher dosages on drug absorption ([5]; 200 μM, 2% BCP)
4 | CC(C)(C)c1ccc(C(O)CCCN2CCC(C(O)(c3ccccc3)c3ccccc3)CC2)cc1 (stereo not shown) [Terfenadine] | significantly reduced | 61.8 | further decrease terfenadine absorption; also recorded: significant reductions |  |  | 6.6 | significantly decreases terfenadine absorption | 0.0963 (≈ 204 µM) |  |  |  |  |  | 
